The values that follow come from patent publication US9045445B2, “Glycine transporter-1 inhibitors, methods of making them, and uses thereof” (Albany Molecular Research, Inc., priority 2010, dated 2015).

Assay [1] has as its target T1, glycine transporter-2 (GlyT-2) (Homo sapiens, UniProt Q9Y345).
T1 construct: expressed in transfected cells
T1 sequence (Q9Y345 1-797): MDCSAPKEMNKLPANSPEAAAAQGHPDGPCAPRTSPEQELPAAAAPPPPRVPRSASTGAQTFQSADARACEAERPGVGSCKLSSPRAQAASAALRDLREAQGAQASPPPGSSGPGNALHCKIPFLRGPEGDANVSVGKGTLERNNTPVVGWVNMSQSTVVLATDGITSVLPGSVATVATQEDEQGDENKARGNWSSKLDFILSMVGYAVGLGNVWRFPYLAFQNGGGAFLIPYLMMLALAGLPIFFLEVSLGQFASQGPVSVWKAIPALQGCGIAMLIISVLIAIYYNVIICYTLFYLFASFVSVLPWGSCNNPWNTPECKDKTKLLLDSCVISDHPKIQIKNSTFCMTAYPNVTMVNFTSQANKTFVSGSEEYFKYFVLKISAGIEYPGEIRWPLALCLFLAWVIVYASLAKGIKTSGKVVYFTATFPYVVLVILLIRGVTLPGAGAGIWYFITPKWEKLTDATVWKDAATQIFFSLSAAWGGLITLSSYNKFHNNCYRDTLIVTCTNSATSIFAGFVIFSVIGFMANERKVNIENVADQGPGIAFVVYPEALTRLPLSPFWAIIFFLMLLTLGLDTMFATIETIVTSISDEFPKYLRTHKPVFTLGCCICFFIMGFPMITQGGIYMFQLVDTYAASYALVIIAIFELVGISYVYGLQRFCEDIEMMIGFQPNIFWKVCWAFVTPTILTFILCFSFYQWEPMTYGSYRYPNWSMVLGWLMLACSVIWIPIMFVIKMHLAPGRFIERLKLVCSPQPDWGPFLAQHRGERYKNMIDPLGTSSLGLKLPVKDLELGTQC
Kind of assay: [14C]glycine uptake assay in HEK-GlyT-2 transfected cells. To be noted: HEK-GlyT-2 cells. In kind it is cell-based.

The target of assay [2] is T2, glycine transporter-1 (GlyT-1) (Homo sapiens, UniProt P48067).
T2 construct: JAR cells (ATCC#HTB-144), which endogenously express GlyT-1; host or cells: JAR human choriocarcinoma cells
T2 sequence (P48067 1-706): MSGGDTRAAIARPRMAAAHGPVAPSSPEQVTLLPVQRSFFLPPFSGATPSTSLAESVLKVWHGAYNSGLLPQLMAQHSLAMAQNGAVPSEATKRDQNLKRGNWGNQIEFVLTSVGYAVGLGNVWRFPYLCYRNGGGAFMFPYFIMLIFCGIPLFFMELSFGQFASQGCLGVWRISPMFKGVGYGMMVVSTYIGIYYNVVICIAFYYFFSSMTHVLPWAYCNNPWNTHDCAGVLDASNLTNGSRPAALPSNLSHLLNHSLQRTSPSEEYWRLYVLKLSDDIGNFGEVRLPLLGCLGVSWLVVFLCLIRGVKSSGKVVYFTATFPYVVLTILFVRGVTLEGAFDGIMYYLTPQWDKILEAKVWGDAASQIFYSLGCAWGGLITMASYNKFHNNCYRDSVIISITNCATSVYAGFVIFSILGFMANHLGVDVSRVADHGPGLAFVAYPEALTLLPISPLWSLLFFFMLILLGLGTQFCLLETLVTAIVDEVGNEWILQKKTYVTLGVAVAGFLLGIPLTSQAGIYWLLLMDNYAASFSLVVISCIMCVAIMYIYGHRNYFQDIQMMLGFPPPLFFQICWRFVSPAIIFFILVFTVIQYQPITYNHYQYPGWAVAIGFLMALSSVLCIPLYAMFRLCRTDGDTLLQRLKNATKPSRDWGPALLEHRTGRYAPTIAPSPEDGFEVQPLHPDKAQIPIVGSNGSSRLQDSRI
In words: [14C]glycine uptake assay in JAR cells endogenously expressing GlyT-1 (scintillation proximity). In kind it is cell-based. As to conditions: JAR cells, [14C]glycine 5 μM, 3 hour incubation; read-out: GlyT-1 IC50. The gist of the method: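 Human choriocarcinoma JAR cells (endogenous GlyT-1) attached overnight, then pre-incubated 10 min at room temperature with compound in pH 7.4 Hepes uptake buffer containing 5 mM alanine and 0.75% DMSO. Uptake of 5 μM [14C]glycine over 3 h at 37 °C read by scintillation proximity; IC50 from four-parameter fit of nine-point curves.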

Each structure is given as a SMILES string. pIC50: −log10 of the molar value. Structures can show the parent of a compound that is named as a salt. Some results are limits rather than exact numbers.

In general, pIC50 refers to the IC50 on a negative log10 scale, so that one unit is a factor of ten. `Cn1cnc(S(=O)(=O)N2CCN(C3(CNC(=O)c4ccccc4Cl)CCC(F)(F)CC3)CC2)c1` [compound 160, 2-Chloro-N-((4,4-difluoro-1-(4-(1-methyl-1H-imidazol-4-ylsulfonyl)piperazin-1-yl)cyclohexyl)methyl) benzamide Hydrochloride]: the pIC50 is less than 4.12 in assay [1] and 8.05 in assay [2].

For the compound `Cn1cc(S(=O)(=O)N2CCN(C3(CNC(=O)c4ccc(F)cc4F)CCCC3)CC2)nn1` [compound 111, 2,4-Difluoro-N-((1-(4-(1-methyl-1H-1,2,3-triazol-4-ylsulfonyl)piperazin-1-yl)cyclopentyl)methyl) benzamide Hydrochloride], the pIC50 in assay [1] is less than 4.12; in assay [2], 6.62.

As to `CCCS(=O)(=O)N1CCN(C2(CNC(=O)c3c(C)cccc3C)CCCCC2)CC1` [compound 47, 2,6-Dimethyl-N-((1-(4-(propylsulfonyl)piperazin-1-yl)cyclohexyl)methyl) benzamide Hydrochloride], the pIC50 in assay [1] was less than 4.12; in assay [2] it was 7.92.

Turning to `Cn1cnc(S(=O)(=O)N2CCN(C3(CNC(=O)c4c(Cl)cccc4C(F)(F)F)CCC(F)(F)CC3)CC2)c1` [compound 185, 2-Chloro-N-((4,4-difluoro-1-(4-(1-methyl-1H-imidazol-4-ylsulfonyl)piperazin-1-yl)cyclohexyl)methyl)-6-(trifluoromethyl)benzamide Hydrochloride], the pIC50 is less than 4.12 in assay [1] and 8.22 in assay [2].

Regarding `CCCS(=O)(=O)N1CCN(C2(CNC(=O)c3ccc(Cl)cc3Cl)CCCCCC2)CC1` [compound 60, 2,4-Dichloro-N-((1-(4-(propylsulfonyl)piperazin-1-yl)cycloheptyl)methyl) benzamide Hydrochloride], the pIC50 was less than 4.12 in assay [1] and 7.96 in assay [2].

Regarding `Cn1cnc(S(=O)(=O)N2CCN(C3(CNC(=O)c4c(F)cccc4F)CCOCC3)CC2)c1` [compound 124, 2,6-Difluoro-N-((4-(4-(1-methyl-1H-imidazol-4-ylsulfonyl)piperazin-1-yl)tetrahydro-2H-pyran-4-yl)methyl)benzamide Hydrochloride], the pIC50 in assay [1] was less than 4.12; in assay [2] it was 6.47.

For `CCCS(=O)(=O)N1CCN(C2(CNC(=O)c3ccccc3OC)CCC(F)(F)CC2)CC1` [compound 133, N-((4,4-Difluoro-1-(4-(propylsulfonyl)piperazin-1-yl)cyclohexyl)methyl)-2-methoxybenzamide Hydrochloride], the pIC50 in assay [1] was less than 4.12; in assay [2] it was 7.32.

As for `Cn1cnc(S(=O)(=O)N2CCN(C3(CNC(=O)c4ccccc4OC(F)(F)F)CCC(F)(F)CC3)CC2)c1` [compound 161, N-((4,4-difluoro-1-(4-(1-methyl-1H-imidazol-4-ylsulfonyl)piperazin-1-yl)cyclohexyl)methyl)-2-(trifluoromethoxy) benzamide Hydrochloride], the pIC50 in assay [1] was less than 4.12; in assay [2], 9.00.

`Cn1cc(S(=O)(=O)N2CCN(C3(CNC(=O)c4ccc(Cl)cc4Cl)CCOCC3)CC2)nn1` [compound 129, 2,4-Dichloro-N-((4-(4-(1-methyl-1H-1,2,3-triazol-4-ylsulfonyl)piperazin-1-yl)tetrahydro-2H-pyran-4-yl)methyl)benzamide Hydrochloride]: the results for the pIC50 in assay [1] and in assay [2] were less than 4.12 and 7.96, respectively.

On to `CCCS(=O)(=O)N1CCN(C2(CNC(=O)c3ccc(F)cc3F)CCCCC2)CC1` [compound 39, 2,4-Difluoro-N-((1-(4-(propylsulfonyl)piperazin-1-yl)cyclohexyl)methyl) benzamide Hydrochloride], for which the results for the pIC50 in assay [1] and in assay [2] were no more than 4.12 and 6.88, respectively.

With `CCCS(=O)(=O)N1CCN(C2(CNC(=O)c3ccc(F)cc3Cl)CCCCC2)CC1` [compound 12, 2-Chloro-4-fluoro-N-((1-(4-(propylsulfonyl)piperazin-1-yl)cyclohexyl)methyl) benzamide Hydrochloride], the pIC50 in assay [1] is less than 4.12; in assay [2], 7.20.

For `CCCS(=O)(=O)N1CCN(C2(CNC(=O)c3cccc(OC)c3)CCCCC2)CC1` [compound 29, 3-Methoxy-N-((1-(4-(propylsulfonyl)piperazin-1-yl)cyclohexyl)methyl) benzamide Hydrochloride], the pIC50 in assay [1] is less than 4.12; in assay [2], 6.12.

As to `CCCS(=O)(=O)N1CCN(C2(CNC(=O)c3c(C)cc(C)cc3C)CCCCC2)CC1` [compound 36, 2,4,6-Trimethyl-N-((1-(4-(propylsulfonyl)piperazin-1-yl)cyclohexyl)methyl) benzamide Hydrochloride], the pIC50 in assay [1] was less than 4.12; in assay [2], 7.41.

In the case of `CCCS(=O)(=O)N1CCN(C2(CNC(=O)c3ccc(C#N)cc3)CCCCC2)CC1` [compound 17, 4-Cyano-N-((1-(4-(propylsulfonyl)piperazin-1-yl)cyclohexyl)methyl) benzamide Hydrochloride], the pIC50 is less than 4.12 in assay [1] and 6.19 in assay [2].

In the case of `CCCS(=O)(=O)N1CCN(C2(CNC(=O)c3c(Cl)cccc3Cl)CCC(F)(F)CC2)CC1` [compound 135, 2,6-Dichloro-N-((4,4-difluoro-1-(4-(propylsulfonyl)piperazin-1-yl)cyclohexyl)methyl) benzamide Hydrochloride], the pIC50 in assay [1] was less than 4.12; in assay [2] it was 7.38.

`CCCS(=O)(=O)N1CCN(C2(CNC(=O)c3ccc(Cl)cc3C)CCCCC2)CC1` [compound 9, 4-Chloro-2-methyl-N-((1-(4-(propylsulfonyl)piperazin-1-yl)cyclohexyl)methyl) benzamide Hydrochloride]: the pIC50 in assay [1] was less than 4.12; in assay [2], 7.66.

As to `CC(NC(=O)c1ccc(C(F)(F)F)cc1Cl)C1(N2CCN(S(=O)(=O)c3cn(C)nn3)CC2)CCC(F)(F)CC1` (stereo not drawn) [compound 223, 2-Chloro-N-(1-(4,4-difluoro-1-(4-(1-methyl-1H-1,2,3-triazol-4-ylsulfonyl)piperazin-1-yl)cyclohexyl)ethyl)-4-(trifluoromethyl)benzamide Hydrochloride], the figures for the pIC50 in assay [1] and in assay [2] were less than 4.12 and 7.48, respectively.

Regarding `CCCS(=O)(=O)N1CCN(C2(CNC(=O)c3ccc(C)cc3)CCCCC2)CC1` [compound 25, 4-Methyl-N-((1-(4-(propylsulfonyl)piperazin-1-yl)cyclohexyl)methyl) benzamide Hydrochloride], the pIC50 in assay [1] was less than 4.12; in assay [2], 6.12.

As for `CCCS(=O)(=O)N1CCN(C2(CNC(=O)c3c(F)ccc(F)c3Cl)CCCCCC2)CC1` [compound 54, 2-Chloro-3,6-difluoro-N-((1-(4-(propylsulfonyl)piperazin-1-yl)cycloheptyl)methyl) benzamide Hydrochloride], the pIC50 is less than 4.12 in assay [1] and 7.70 in assay [2].

Turning to `CCCS(=O)(=O)N1CCN(C2(CNC(=O)c3c(F)cc(Cl)cc3F)CCC(F)(F)CC2)CC1` [compound 259, 4-Chloro-N-((4,4-difluoro-1-(4-(propylsulfonyl)piperazin-1-yl)cyclohexyl)methyl)-2,6-difluorobenzamide Hydrochloride], the pIC50 is less than 4.12 in assay [1] and 7.60 in assay [2].

As to `Cn1cnc(S(=O)(=O)N2CCN(C3(CNC(=O)c4c(Cl)cccc4Cl)CCCCCC3)CC2)c1` [compound 106, 2,6-Dichloro-N-((1-(4-(1-methyl-1H-imidazol-4-ylsulfonyl)piperazin-1-yl)cycloheptyl)methyl) benzamide Hydrochloride], the pIC50 in assay [1] was less than 4.12; in assay [2], 8.30.
